In US8524906B2, “Tetrahydrothiazolopyridine inhibitors of phosphatidylinositol 3-kinase” (Vertex Pharmaceuticals Incorporated, priority 2009, dated 2013):
“And” between values parts separate entries of the source, which are not always exact repeats. Identical values can stand only once. Like-named read-outs stand apart in the source and are kept apart here.

Target: PI3Kγ (Homo sapiens, UniProt P48736)
Experiment: PI3K Inhibition Assay (33P-ATP, PI(4,5)P2 substrate, filter plate scintillation counting)
Format: biochemical
Details: 3 μM ATP, 30 μM PI(4,5)P2, 2 nM final enzyme, 30 min at 25° C., competitive tight binding Ki fit
Description: One test well also contained 1.5 μL of DMSO with no compound. […] Using a Titertek Multidrop, 50 μL of Reaction Mix [100 mM HEPES pH 7.5, 50 mM NaCl, 10 mM DTT, 0.2 mg/mL BSA, 60 μM phosphatidylinositol(4,5)-bisphosphate diC16 (PI(4,5)P2; Avanti Polar Lipids, Cat. No. 840046P) and PI3K isoform of interest (see Table 3 for isoform concentrations)] was added to each well. To initiate the reaction, 50 μL of ATP Mix [20 mM MgCl2, 6 μM ATP (100 μCi/μmole ^33P-ATP)] was added each well, followed by incubating the wells for 30 min. at 25° C. Final concentrations in each well were 50 mM HEPES 7.5, 10 mM MgCl2, 25 mM NaCl, 5 mM DTT, 0.1 mg/mL BSA, 30 μM PI(4,5)P2, 3 μM ATP, and the PI3K isoform of interest (see Table 3). Final compound concentrations in each well ranged from 10 μM to 1 nM.
After incubation, the reactions in each well were quenched by addition of 50 μL of stop solution [30% TCA/Water, 10 mM ATP]. […] 50 μL of scintillation fluid was added to each well and the plate read on a Perkin-Elmer TopCount™ NXT liquid scintillation counter to obtain ^33P-counts representing inhibition values.
The value for the background well was subtracted from the value obtained for each test well and the data were fit to the competitive tight binding Ki equation described by Morrison and Stone, Comments Mol. Cell Biophys.

Sequence of PI3Kγ (P48736 whole entry, species assumed): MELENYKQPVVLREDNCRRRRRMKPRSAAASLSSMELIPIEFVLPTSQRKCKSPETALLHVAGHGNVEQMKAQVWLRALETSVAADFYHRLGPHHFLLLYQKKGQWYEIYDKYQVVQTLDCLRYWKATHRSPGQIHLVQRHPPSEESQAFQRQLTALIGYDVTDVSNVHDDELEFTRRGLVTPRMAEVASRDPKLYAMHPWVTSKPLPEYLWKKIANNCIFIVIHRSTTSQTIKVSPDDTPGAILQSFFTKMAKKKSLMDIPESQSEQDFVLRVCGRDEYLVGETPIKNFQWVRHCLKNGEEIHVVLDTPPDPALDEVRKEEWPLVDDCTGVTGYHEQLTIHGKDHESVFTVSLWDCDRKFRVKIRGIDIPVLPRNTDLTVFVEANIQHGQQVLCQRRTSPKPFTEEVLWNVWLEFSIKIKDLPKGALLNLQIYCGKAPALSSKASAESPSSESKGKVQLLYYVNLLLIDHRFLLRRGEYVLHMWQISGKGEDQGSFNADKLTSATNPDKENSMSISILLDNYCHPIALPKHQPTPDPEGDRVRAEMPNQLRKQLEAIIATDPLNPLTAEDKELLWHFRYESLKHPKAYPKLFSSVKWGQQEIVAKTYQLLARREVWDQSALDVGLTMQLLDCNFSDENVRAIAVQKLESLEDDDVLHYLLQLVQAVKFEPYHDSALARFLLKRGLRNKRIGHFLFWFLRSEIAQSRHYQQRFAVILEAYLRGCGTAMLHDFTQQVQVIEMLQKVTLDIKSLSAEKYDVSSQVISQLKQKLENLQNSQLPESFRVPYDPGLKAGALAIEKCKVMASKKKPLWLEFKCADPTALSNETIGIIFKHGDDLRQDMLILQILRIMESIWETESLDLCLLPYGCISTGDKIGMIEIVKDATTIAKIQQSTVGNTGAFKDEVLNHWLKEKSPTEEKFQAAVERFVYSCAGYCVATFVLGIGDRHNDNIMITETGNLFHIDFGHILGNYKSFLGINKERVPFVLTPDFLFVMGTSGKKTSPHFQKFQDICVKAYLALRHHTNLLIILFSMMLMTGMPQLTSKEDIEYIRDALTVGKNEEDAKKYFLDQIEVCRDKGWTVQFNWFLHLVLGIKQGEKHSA

Ki (read-out: Ki for PI3Kγ)	SMILES	Ki (Ki for PI3Kγ)
< 100 nM	CCNC(=O)Nc1nc2c(s1)CN(c1cnc(OC)c(OC)c1)CC2 [Compound 10]	
< 100 nM	CCCOCCNC(=O)Nc1nc2c(s1)CN(c1cnc(OC)c(OC)c1)CC2 [Compound 16]	
< 100 nM	CCOC(=O)CCCNC(=O)Nc1nc2c(s1)CN(c1cnc(Cl)c(OC)c1)CC2 [Compound 34]	
< 100 nM	COCCNC(=O)Nc1nc2c(s1)CN(c1cnc(Cl)c(OC)c1)CC2 [Compound 35]	
< 100 nM	COc1cc(N2CCc3nc(NC(=O)NCCCN(C)C)sc3C2)cnc1Cl [Compound 37]	
< 100 nM	COc1cc(N2CCc3nc(NC(=O)NCCc4cn(CCF)cn4)sc3C2)cnc1Cl [Compound 38]	
< 100 nM	CCOCCCNC(=O)Nc1nc2c(s1)CN(c1cnc(Cl)c(OC)c1)CC2 [Compound 39]	
< 100 nM	COc1cc(N2CCc3nc(NC(=O)CCNC(C)=O)sc3C2)cnc1Cl [Compound 44]	
< 100 nM	COc1cc(N2CCc3nc(NC(=O)NCCCO)sc3C2)cnc1Cl [Compound 50]	
< 100 nM	COc1cc(N2CCc3nc(NC(=O)N4CC(OC)C4)sc3C2)cnc1Cl [Compound 51]	
< 20 nM and 3 nM and < 100 nM	CCOC(=O)CCNC(=O)Nc1nc2c(s1)CN(c1cnc(Cl)c(OC)c1)CC2 [Compound 52]	

The next lines start with the molecule.

SMILES	Ki (read-out: Ki for PI3Kγ)	Ki (Ki for PI3Kγ)
COCC(=O)Nc1nc2c(s1)CN(c1cncc(OC)c1)CC2 [Compound 4]	< 100 nM	
CCNC(=O)Nc1nc2c(s1)CN(c1cncc(C(F)(F)F)c1)CC2 [Compound 6]	< 100 nM	
CC(=O)Nc1nc2c(s1)CN(c1cncc(C(F)(F)F)c1)CC2 [Compound 7]	< 100 nM	
COCC(=O)Nc1nc2c(s1)CN(c1cncc(C(F)(F)F)c1)CC2 [Compound 8]	< 100 nM	
COc1cc(N2CCc3nc(NC(=O)NCCCl)sc3C2)cnc1OC [Compound 11]		< 100 nM
CCCOCCNC(=O)Nc1nc2c(s1)CN(c1cncc(C(F)(F)F)c1)CC2 [Compound 12]	< 20 nM	
COc1ncc(N2CCc3nc(NC(C)=O)sc3C2)nc1OC [Compound 14, N-(4,5,6,7-tetrahydro-5-(5,6-dimethoxypyrazin-2-yl)thiazolo[5,4-c]pyridin-2-yl)acetamide]	< 20 nM	
COc1cc(N2CCc3nc(NC=O)sc3C2)cnc1OC [Compound 15]	< 100 nM	
CC(=O)Nc1nc2c(s1)CN(c1cncc(C(F)(F)F)n1)CC2 [Compound 17]	< 100 nM	
COc1cncc(N2CCc3nc(Nc4cnccn4)sc3C2)c1 [Compound 18, 4,5,6,7-tetrahydro-5-(5-methoxypyridin-3-yl)-N-(pyrazin-2-yl)thiazolo[5,4-c]pyridin-2-amine]	< 100 nM	
COc1cncc(N2CCc3nc(NC(=O)CF)sc3C2)c1 [Compound 19]		< 100 nM
COc1cc(N2CCc3nc(NC(=O)CCNC(=O)c4ccccn4)sc3C2)cnc1OC [Compound 32]	< 100 nM	
COc1cc(N2CCc3nc(NC(=O)CNC(=O)c4ccccn4)sc3C2)cnc1OC [Compound 33]	< 100 nM	
COc1cc(N2CCc3nc(NC(=O)N4CCCC4)sc3C2)cnc1Cl [Compound 57]	< 100 nM	
